The source of these data is publication PMC2841507 (Journal of medicinal chemistry, 2010).

SMILES strings stand for the structures.

Test [1] deals with human DAT (Homo sapiens, UniProt Q01959). As to the kind of experiment: cell-based. It counts as cell-based.
Test [2] deals with human α3β4*-nAChR (Homo sapiens, UniProt P30926+P32297). The experiment in a line: 86Rb+ efflux assay, SH-SY5Y cells. It counts as cell-based.
The target in test [3] is human NET (Homo sapiens, UniProt P23975). As to the kind of experiment: cell-based. The class given is cell-based.
The target of test [4] is human α4β2-nAChR (Homo sapiens, UniProt P17787+P43681). As to the kind of experiment: 86Rb+ efflux assay, SH-EP1-hα4β2 cells. The class given is cell-based.
Test [5] addresses human muscle-type α1β1γδ- (α1*-) nAChR (Homo sapiens, UniProt P02708+P07510+P11230+Q07001). As to the kind of experiment: 86Rb+ efflux assay, TE671/RD cells. It counts as cell-based.
Test [6] addresses human α4β4-nAChR (Homo sapiens, UniProt P30926+P43681). The experiment in a line: 86Rb+ efflux assay, SH-EP1-hα4β4 cells. It counts as cell-based.
Test [7] has as its system nicotine-induced antinociception (tail-flick). As to the kind of experiment: Blockade of nicotine-induced antinociception, tail-flick test. It counts as in vivo, mice. The note with it: ratio of AD50 values, relative to 2a.

With `CC(C(=O)c1cccc(F)c1)N1CCCC1` (stereo not drawn) [Compound 2aa, 2-(N-Pyrrolidinyl)-3’-fluoropropiophenone], the IC50 in test [1] is 0.156 ± 0.046 µM; in test [2], 35 µM; in test [3], 0.135 ± 0.036 µM; in test [4] it was 71 µM. Besides, the “fold more potent than 2a in inhibition of DA uptake” value in test [1] was 4 fold. Moreover, the “fold more potent than 2a in inhibition of NE uptake” value in test [3] is listed as 14 fold.
Take `CC(C(=O)c1cccc(Br)c1)N1CCCC1` (stereo not drawn) [Compound 2bb, 2-(N-Pyrrolidinyl)-3’-bromopropiophenone]: the IC50 came out at 0.75 ± 0.173 µM in test [1]; 11 µM in test [2]; 1.18 ± 0.27 µM in test [3]; 19 µM in test [5]; 64 µM in test [6]; 74 µM in test [4].
On to `CC(NC(C)(C)C)C(=O)c1cccc(Br)c1` (stereo not drawn) [Compound 2c], for which the “times more potent than 2a in blocking nicotine-induced antinociception in the tail-flick test” value (“times more potent than 2a” below) in test [7] is listed as ~ 10 fold.
As to `Cc1cccc(C(=O)C(C)N2CCCC2)c1` (stereo not drawn) [Compound 2cc, 2-(N-Pyrrolidinyl)-3’-methylpropiophenone], the IC50 in test [1] was 0.414 ± 0.089 µM; in test [2], 11 µM; in test [3], 0.577 ± 0.061 µM; in test [5], 53 µM; in test [4], 56 µM.
As to `Cc1cccc(C(=O)C(C)NC(C)(C)C)c1` (stereo not drawn) [Compound 2d], the “times more potent than 2a” value in test [7] was determined as 24 fold.
On to `COc1cccc(C(=O)C(C)N2CCCC2)c1` (stereo not drawn) [Compound 2dd, 2-(N-Pyrrolidinyl)-3’-methoxypropiophenone], for which the IC50 worked out at 0.452 ± 0.082 µM in test [1]; 16 µM in test [2]; 0.718 ± 0.13 µM in test [3]; 87 µM in test [5]; 57 µM in test [4].
As for `CC(C(=O)c1cccc([N+](=O)[O-])c1)N1CCCC1` (stereo not drawn) [Compound 2ee, 2-(N-Pyrrolidinyl)-3’-nitropropiophenone], the IC50 in test [1] stood at 10 ± 1.9 µM; in test [2], 53 µM; in test [3], 4.1 ± 0.54 µM.
In the case of `CC(C(=O)c1cccc(Cl)c1)N1CCCCC1` (stereo not drawn) [Compound 2ff], in test [7], the “times more potent than 2a” value was found to be 24 fold.
For `CC(NC(C)(C)C)C(=O)c1ccc(Br)cc1` (stereo not drawn) [Compound 2h], the “times more potent than 2a” value in test [7] is ~ 10 fold.
As to `Cc1ccc(C(=O)C(C)NC(C)(C)C)cc1` (stereo not drawn) [Compound 2i], in test [7], the “times more potent than 2a” value is reported as ~ 10 fold.
Still for that read-out and setting: to `CC(NC(C)(C)C)C(=O)c1ccc(F)c(F)c1` (stereo not drawn) [Compound 2j] belongs 24 fold; to `CC(NC(C)(C)C)C(=O)c1cc(Cl)cc(Cl)c1` (stereo not drawn) [Compound 2n], 43 fold; to `CCC(NC(C)(C)C)C(=O)c1ccc(Cl)c(Cl)c1` (stereo not drawn) [Compound 2w], 24 fold.

In general, IC50 refers to the concentration needed to halve the response being measured. Low values mean higher potency, high ones lower potency.
